Consider 33 compounds from ChEMBL document CHEMBL1126226, “The discovery of a new structural class of potent orally active leukotriene D4 antagonists” (Bioorg Med Chem Lett, 1992).

Data set [1] can be described thus: Plasma clearance was estimated from the AUC after 5 mg/kg intravenous dosing in rats. The class given is ADME, organism-based. The arrangement: dose 5 mg/kg, route intravenous. The following applies: rat.
Data set [2] addresses T1, Cysteinyl leukotriene receptor 1 (Cavia porcellus, UniProt Q2NNR5).
T1 sequence (Q2NNR5 whole entry): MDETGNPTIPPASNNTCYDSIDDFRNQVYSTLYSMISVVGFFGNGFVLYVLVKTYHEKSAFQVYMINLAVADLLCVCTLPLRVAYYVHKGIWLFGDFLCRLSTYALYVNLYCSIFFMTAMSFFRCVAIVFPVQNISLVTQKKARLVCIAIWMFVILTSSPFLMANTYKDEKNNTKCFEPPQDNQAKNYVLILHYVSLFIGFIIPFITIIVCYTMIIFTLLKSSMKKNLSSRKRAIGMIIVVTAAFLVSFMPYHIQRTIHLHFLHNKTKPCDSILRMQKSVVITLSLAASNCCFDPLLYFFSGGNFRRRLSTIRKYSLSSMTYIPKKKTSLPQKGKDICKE
Put plainly: Inhibitory concentration against [3H]Leukotriene D4 binding to guinea-pig lung membranes was determined. The class given is tissue-based, Membrane.

In data set [3] the target is T1, Cysteinyl leukotriene receptor 1. The data set can be described thus: Inhibitory concentration against [3H]Leukotriene D4 binding to guinea-pig lung membranes was determined; experiment 1. The class given is tissue-based, Membrane.
Data set [4] shares this target. The data set can be described thus: Inhibitory concentration against [3H]Leukotriene D4 binding to guinea-pig lung membranes was determined; experiment 2. The data set is classed as tissue-based, Membrane.
Data set [5] has the same target. Put plainly: Inhibition of Leukotriene D4 induced contraction of guinea-pig trachea was determined. The data set is classed as functional, tissue-based. The following applies: read-out: pA2 (converted).
Data set [6] has as its system Mus musculus. The data set can be described thus: The compound was tested for average percentage increase of fatty acyl Co-A oxidase activity after 4 days of dosing in mice at 400 mg/kg peroral administration. The class given is functional. The settings on record: route oral.
In data set [7] the test system is Rattus norvegicus. Put plainly: Percent inhibition of Antigen induced dyspnea in hyperactive rats by the compound at 0.5 mg/kg concentration was determined. The class given is functional.
Data set [8] deals with T1, Cysteinyl leukotriene receptor 1. The data set can be described thus: Inhibitory concentration against [3H]Leukotriene D4 binding to guinea-pig lung membranes was determined (Experiment 2). The class given is tissue-based, Membrane.
Data set [9] shares this target. Put plainly: Inhibitory concentration against [3H]Leukotriene D4 binding to guinea-pig lung membranes was determined (Experiment 1). The data set is classed as tissue-based, Membrane.
The test system of data set [10] is Mus musculus. The data set can be described thus: The compound was tested for average percentage increase of fatty acyl Co-A oxidase activity after 4 days of dosing mice at 400 mg/kg peroral administration. The class given is functional. The settings on record: route oral.
Data set [11] in a line: The apparent total plasma clearance in monkey. The settings on record: cercopithecidae. The class given is ADME, organism-based.
For data set [12], the system named is Rattus norvegicus. The data set can be described thus: Percent inhibition of Antigen induced dyspnea in hyperractive rats by the compound at 0.5 mg/kg concentration was determined after peroral administration, 2 hr pretreatment. The class given is functional. The settings on record: route oral.
Another data set concerns Cavia porcellus. Put plainly: Effective dose in guinea pig on intravenous administration. The class given is functional.
Data set [13] deals with Monkey. Put plainly: Inhibition of Leukotriene D4 induced bronchoconstriction in squirrel monkey, 4 hr pretreatment at 0.1 mg/kg peroral administration. The data set is classed as functional. The following applies: in Primates, route oral.
Data set [14] concerns Mus musculus. The data set can be described thus: The compound was tested for average percentage increase of fatty acyl Co-A oxidase activity after 4 days of dosing in mice at 100 mg/kg peroral administration. The class given is functional. The settings on record: route oral.
For data set [15], the system named is Monkey. The data set can be described thus: Inhibition of Leukotriene D4 induced bronchoconstriction in squirrel monkey, 4 hr pretreatment, 0.1 mg/kg peroral administration. The class given is functional. The following applies: in Primates, route oral.

Take `O=C([O-])CCSC(CCc1ccccc1-c1nc[nH]n1)c1cccc(OCc2ccc3ccc(Cl)cc3n2)c1.[Na+]` (stereo not drawn): the clearance in data set [1] is 64 mL/min/kg. The same compound had an IC50 in data set [2] of 0.36 nM.
As to `CC(CSC(CCc1ccccc1C(C)(C)O)c1cccc(OCc2ccc3ccc(Cl)cc3n2)c1)C(=O)[O-].[Na+]` (stereo not drawn), in data set [1], the clearance was 12 mL/min/kg. Besides, the IC50 in data set [3] worked out at 0.5 nM; in data set [4], 0.85 nM.
As to `CCC(CSC(CCc1ccccc1C(N)=O)c1cccc(OCc2ccc3ccc(Cl)cc3n2)c1)C(=O)[O-].[Na+]` (stereo not drawn), the clearance in [1] was 58 mL/min/kg. Further, the IC50 in data set [2] was 0.47 nM.
`CC(CSC(CCc1ccccc1C(=O)N(C)C)c1cccc(OCc2ccc3ccc(Cl)cc3n2)c1)C(=O)O` (stereo not drawn) registered an IC50 in data set [2] of 0.52 nM.
For the compound `CCC(CSC(CCc1ccccc1-c1nnnn1C)c1cccc(OCc2ccc3ccc(Cl)cc3n2)c1)C(=O)[O-].[Na+]` (stereo not drawn), the clearance in data set [1] was 18 mL/min/kg. In addition, the 50% inhibitory concentration (IC50) in data set [2] was 0.4 nM.
As for `NS(=O)(=O)c1ccccc1CCC(SCCC(=O)[O-])c1cccc(OCc2ccc3ccc(Cl)cc3n2)c1.[Na+]` (stereo not drawn), the clearance in [1] is 106 mL/min/kg. For the same compound, the results for the half-maximal inhibitory concentration (IC50) in data set [3] and in data set [4] were 0.4 nM and 0.6 nM, respectively.
Take `C[C@H](CS[C@H](CCc1ccccc1C(C)(C)O)c1cccc(OCc2ccc3ccc(Cl)cc3n2)c1)C(=O)[O-].[Na+]`: in data set [5], the Kb was 0.794 nM. Besides, the IC50 is 2 nM in data set [3] and 4 nM in data set [4]. Moreover, in the data set with Mus musculus [6], the “FACO Activity” value is 128%. The compound further gave an inhibition in vivo at 0.5 mg/kg in the data set with Rattus norvegicus [7] of 62%.
With `CCC(CSC(CCc1ccccc1S(C)(=O)=O)c1cccc(OCc2ccc3ccc(Cl)cc3n2)c1)C(=O)[O-].[Na+]` (stereo not drawn), the clearance in data set [1] was 35 mL/min/kg. The IC50 in [3] was 0.6 nM; in [4], 1 nM.
For `CC(CSC(CCc1ccccc1[N+](=O)[O-])c1cccc(OCc2ccc3ccc(Cl)cc3n2)c1)C(=O)[O-].[Na+]` (stereo not drawn) the same measures were 12 mL/min/kg, 0.4 nM and 0.49 nM.
`CN(C)C(=O)CCSC(SCCC(=O)O)c1cccc(CCc2ccc3ccc(Cl)cc3n2)c1` (stereo not drawn): the values for the IC50 in data set [8] and in data set [9] were 36 nM and 26 nM, respectively.
Take `CC(CSC(CCc1ccccc1C(C)C)c1cccc(OCc2ccc3ccc(Cl)cc3n2)c1)C(=O)[O-].[Na+]` (stereo not drawn): in data set [1], the clearance is 2.2 mL/min/kg. This compound gave an IC50 in [2] of 6.3 nM.
On to `O=C([O-])CCSC(CCc1ccccc1)c1cccc(OCc2ccc3ccc(Cl)cc3n2)c1.[Na+]` (stereo not drawn), for which the clearance in data set [1] is 2.9 mL/min/kg. This compound also returned an IC50 in data set [2] of 6.5 nM.
Turning to `CC(CCC(SCCC(=O)O)c1cccc(OCc2ccc3ccc(Cl)cc3n2)c1)CC(=O)N(C)C` (stereo not drawn), the half-inhibitory concentration (IC50) in data set [2] amounted to 8.6 nM.
`CN(C)C(=O)CCSC(SCCC(=O)O)c1cccc(SCc2ccc3ccc(Cl)cc3n2)c1` (stereo not drawn): the IC50 in [2] was 75 nM.
As for `CC(CCC(SCCC(=O)O)c1cccc(/C=C/c2ccc3ccc(Cl)cc3n2)c1)CC(=O)N(C)C` (stereo not drawn), in data set [2], the concentration for half-maximal inhibition (IC50) worked out at 1.3 nM.
With `CN(C)C(=O)c1ccccc1CCC(SCCC(=O)[O-])c1cccc(OCc2ccc3ccc(Cl)cc3n2)c1.[Na+]` (stereo not drawn), in data set [1], the clearance was 64 mL/min/kg. The same compound yielded a concentration for half-maximal inhibition (IC50) in data set [2] of 0.95 nM.
`CS(=O)(=O)Nc1ccccc1CCC(SCCC(=O)[O-])c1cccc(OCc2ccc3ccc(Cl)cc3n2)c1.[Na+]` (stereo not drawn): the clearance in [1] was 131 mL/min/kg. The figures for the IC50 in [3] and in [4] were 0.56 nM and 0.6 nM, respectively.
For the compound `C[C@H](CS[C@@H](CCc1ccccc1C(C)(C)O)c1cccc(OCc2ccc3ccc(Cl)cc3n2)c1)C(=O)[O-].[Na+]`, the Kb in data set [5] was 5.01 nM. The half-inhibitory concentration (IC50) in [3] was determined as 17 nM; in [4] it was 20 nM. Also, in the data set with Mus musculus [10], the “FACO Activity” value stood at 10%. This compound displayed an inhibition in vivo at 0.5 mg/kg in the data set with Rattus norvegicus [7] of 47%.
Regarding `C[C@@H](CS[C@H](CCc1ccccc1C(C)(C)O)c1cccc(OCc2ccc3ccc(Cl)cc3n2)c1)C(=O)[O-].[Na+]`, in data set [5], the Kb is 0.398 nM. The IC50 in data set [3] is 0.2 nM; in data set [4] it was 0.3 nM. Besides, the “FACO Activity” value with Mus musculus [6] was found to be 155%. Further, in the data set on Rattus norvegicus [7], the inhibition in vivo at 0.5 mg/kg amounted to 63%.
Consider `CC(CSC(CCc1ccccc1C(=O)N(C)CO)c1cccc(OCc2ccc3ccc(Cl)cc3n2)c1)C(=O)O` (stereo not drawn), for which the concentration for half-maximal inhibition (IC50) in [2] was found to be 3.6 nM.
Take `CN(C)C(=O)CCSC(SCCC(=O)O)c1cccc(OCc2ccc3ccc(Cl)cc3n2)c1` (stereo not drawn): the IC50 in data set [2] was 14 nM.
On to `C[C@@H](CS[C@@H](CCc1ccccc1C(C)(C)O)c1cccc(OCc2ccc3ccc(Cl)cc3n2)c1)C(=O)[O-].[Na+]`, for which the Kb in data set [5] was 1.58 nM. In addition, the IC50 in data set [3] was 5 nM; in data set [4] it was 7 nM. Besides, the “FACO Activity” value in the data set on Mus musculus [10] is on record as -7%. The inhibition in vivo at 0.5 mg/kg in the data set with Rattus norvegicus [7] is 46%.
Consider `CCC(CSC(CCc1ccccc1-c1nn[nH]n1)c1cccc(OCc2ccc3ccc(Cl)cc3n2)c1)C(=O)[O-].[Na+]` (stereo not drawn), for which the clearance in data set [1] is 61 mL/min/kg. The IC50 in [3] came to 0.8 nM; in [4], 0.5 nM.
Regarding `O=C([O-])CCSC(CCc1ccccc1C(=O)N1CCCCC1)c1cccc(OCc2ccc3ccc(Cl)cc3n2)c1.[Na+]` (stereo not drawn), in data set [1], the clearance is 55 mL/min/kg. In [2], this compound displayed an IC50 of 0.6 nM.
With `CCOC(=O)Nc1ccccc1CCC(SCC(CC)C(=O)[O-])c1cccc(CCc2ccc3ccc(Cl)cc3n2)c1.[Na+]` (stereo not drawn), the clearance in [1] is 8.8 mL/min/kg. Moreover, the IC50 was 0.5 nM in data set [3] and 0.6 nM in [4].
As for `CN(C)C(=O)c1ccccc1CCC(SCCC(=O)O)c1cccc(OCc2ccc3ccc(Cl)cc3n2)c1` (stereo not drawn), the IC50 in data set [2] was 0.95 nM.
For the compound `CCC(CSC(CCc1ccccc1C(=O)O)c1cccc(OCc2ccc3ccc(Cl)cc3n2)c1)C(=O)[O-].[Na+]` (stereo not drawn), the clearance in [1] is 8.8 mL/min/kg. Moreover, the IC50 came out at 2 nM in data set [3] and 1 nM in [4].
Regarding `CCNC(=O)c1ccccc1CCC(SCC(CC)C(=O)[O-])c1cccc(OCc2ccc3ccc(Cl)cc3n2)c1.[Na+]` (stereo not drawn), the clearance in data set [1] is 106 mL/min/kg. The compound further yielded an IC50 in [2] of 0.45 nM.
For `CCC(CSC(CCc1ccccc1C#N)c1cccc(CCc2ccc3ccc(Cl)cc3n2)c1)C(=O)[O-].[Na+]` (stereo not drawn) the same measures were 13 mL/min/kg and 1 nM.
With `CCC(CSC(CCc1ccccc1C(=O)NS(=O)(=O)c1ccccc1C)c1cccc(OCc2ccc3ccc(Cl)cc3n2)c1)C(=O)[O-].[Na+]` (stereo not drawn), the clearance in data set [1] is 15 mL/min/kg. Also, the IC50 in [3] was determined as 1.4 nM; in data set [4], 6.5 nM.
With `CN(C)C(=O)CCSC(CCc1ccccc1C(=O)O)c1cccc(OCc2ccc3ccc(Cl)cc3n2)c1` (stereo not drawn), the clearance in data set [11] came to 15 mL/min/kg. Also, the IC50 in data set [2] is 1.9 nM. For the same compound, the inhibition in vivo at 0.5 mg/kg in the data set on Rattus norvegicus [12] was 54%.
In the case of `CCC[C@H](CS[C@@H](CCc1ccccc1C(C)(C)O)c1cccc(/C=C/c2ccc3ccc(Cl)cc3n2)c1)C(=O)O` [L-695499], the Kb in data set [5] is 1.58 nM. For the same compound, the 50% effect level in the data set with Cavia porcellus (ED50) was put at a dose of 2 µg/kg. This compound also gave an IC50 in [2] of 0.9 nM. For the same compound, in the data set with Monkey [13], the inhibition in vivo at 0.1 mg/kg was 72%. Moreover, the “FACO Activity” value in the data set on Mus musculus [14] was 38%.
For `CN(C)C(=O)CCS[C@H](SCCC(=O)O)c1cccc(/C=C/c2ccc3ccc(Cl)cc3n2)c1` [MK-571], the clearance in data set [11] is 1.2 mL/min/kg. Further, the Kb in [5] is 1.58 nM. The 50% effect level in the data set on Cavia porcellus (ED50) was put at a dose of 2.8 µg/kg. The concentration for half-maximal inhibition (IC50) in data set [2] was determined as 3.9 nM. The inhibition in vivo at 0.1 mg/kg with Monkey [15] was determined as 60%. The “FACO Activity” value in the data set on Mus musculus [6] turned out to be 62%.

For orientation: IC50 means the concentration at which inhibition is half-maximal. Usually inhibition in vivo stands for the relative decrease from the control value, in per cent. As usually defined, the ED50 is the midpoint of the dose-response relation.
